Format in all cases: biochemical
One assay addresses MKK1 (Homo sapiens, UniProt Q02750). As to the kind of experiment: Kinase screen: MKK1 assay. As for the experimental part: (§1) Generally, the same procedure was used for all assays. Since the total assay volume was 25.5 microliters, 0.5 microliters of inhibitors at 51× assay concentration were added to the plates before any other addition.
(§2) The basic procedure was to add 0.5 microliters inhibitor/control in DMSO to plate. Fifteen microliters of enzyme/substrate/buffer mix were added and incubated for 5 min. Ten microliters MgATP at the relevant concentration were added and incubated for 30 min. The assay was stopped by adding 5 microliters of 3% orthophosphoric acid. The assay was transferred to a p81 filter plate and read in a scintillation counter of 30 sec/well. Note that this assay procedure was not followed for MKK1, which instead involved a two-step assay, and PKC alpha, which required the addition of lipid vesicles.
After incubating at room temperature for 30 min, 5 μl from the first reaction was pipetted into 20 μl of the second reaction mix containing (final concentration) 25 mM Tris pH 7.5, 0.1 mM EGTA, 0.1 mM Na3VO4, 0.66 mg/ml myelin basic protein (MBP), 10 mM magnesium acetate and 0.05 mM [33P-g-ATP] (500-1000 cpm/pmole) and incubated for 30 min at room temperature. Assays were stopped by addition of 5 μl of 0.5 M (3%) orthophosphoric acid and then harvested onto P81 Unifilter plates with a wash buffer of 50 mM orthophosphoric acid.

A further assay concerns the target MSK1 (Homo sapiens, UniProt O75582). Description: Kinase screen: MSK1 assay. As for the experimental part:
as §1, §2
MSK1 assay: MSK1 (5-20 mU diluted in 20 mM MOPS pH 7.5, 1 mM EDTA, 0.01% Brij35, 0.1% b-mercaptoethanol, 1 mg/ml BSA) was assayed against a modified Crosstide peptide […] (SEQ ID NO: 4) in a final volume of 25.5 μl containing 8 mM MOPS pH7.0, 0.2 mM EDTA, 30 μM substrate peptide, 10 mM magnesium acetate and 0.02 mM [33P-g-ATP] (50-1000 cpm/pmole) and incubated for 30 min at room temperature Assays were stopped by addition of 5 μl of 0.5 M (3%) orthophosphoric acid and then harvested onto P81 Unifilter plates with a wash buffer of 50 mM orthophosphoric acid.

The target of the next assay is CHK2 (Homo sapiens, UniProt O96017). Description: Kinase screen: CHK2 assay. As for the experimental part: as §1, §2
Sequence of CHK2 (O96017 whole entry, species assumed): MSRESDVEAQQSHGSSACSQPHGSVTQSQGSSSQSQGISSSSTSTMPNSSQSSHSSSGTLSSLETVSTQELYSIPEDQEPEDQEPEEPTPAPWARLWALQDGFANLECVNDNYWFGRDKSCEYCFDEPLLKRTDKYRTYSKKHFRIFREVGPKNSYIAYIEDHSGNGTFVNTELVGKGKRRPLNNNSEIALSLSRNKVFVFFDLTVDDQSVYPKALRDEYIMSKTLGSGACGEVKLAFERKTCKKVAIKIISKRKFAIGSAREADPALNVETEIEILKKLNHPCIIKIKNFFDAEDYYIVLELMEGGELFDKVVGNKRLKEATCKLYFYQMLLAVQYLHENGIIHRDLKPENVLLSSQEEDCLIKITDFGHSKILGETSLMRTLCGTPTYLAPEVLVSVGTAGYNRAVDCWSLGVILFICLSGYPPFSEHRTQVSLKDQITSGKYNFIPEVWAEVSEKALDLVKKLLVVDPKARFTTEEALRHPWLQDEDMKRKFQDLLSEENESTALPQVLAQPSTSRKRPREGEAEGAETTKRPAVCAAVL
CHK2 assay: CHK2 (5-20 mU diluted in 20 mM MOPS pH 7.5, 1 mM EDTA, 0.1% b-mercaptoethanol, 0.01% Brij-35, 5% glycerol, 1 mg/ml BSA) was assayed against CHKtide substrate peptide ([…]) (SEQ ID NO: 12) in a final volume of 25.5 μl containing 8 mM MOPS pH 7.0, 0.2 mM EDTA, 200 μM CHKtide, 10 mM magnesium acetate and 0.02 mM [33P-g-ATP] (50-1000 cpm/pmole) and incubated for 30 min at room temperature Assays were stopped by addition of 5 μl of 0.5 M (3%) orthophosphoric acid and then harvested onto P81 Unifilter plates with a wash buffer of 50 mM orthophosphoric acid.

In a further assay the target is DYRK1A (Homo sapiens, UniProt Q13627). Description: Kinase screen: DYRK 1A assay. As for the experimental part:
as §1, §2
(§3) (50-1000 cpm/pmole) and incubated for 30 min at room temperature. Assays were stopped by addition of 5 μl of 0.5 M (3%) orthophosphoric acid and then harvested onto P81 Unifilter plates with a wash buffer of 50 mM orthophosphoric acid.

Another assay has as its target T1, MST2 (Homo sapiens, UniProt Q13188).
T1 sequence (Q13188 1-491): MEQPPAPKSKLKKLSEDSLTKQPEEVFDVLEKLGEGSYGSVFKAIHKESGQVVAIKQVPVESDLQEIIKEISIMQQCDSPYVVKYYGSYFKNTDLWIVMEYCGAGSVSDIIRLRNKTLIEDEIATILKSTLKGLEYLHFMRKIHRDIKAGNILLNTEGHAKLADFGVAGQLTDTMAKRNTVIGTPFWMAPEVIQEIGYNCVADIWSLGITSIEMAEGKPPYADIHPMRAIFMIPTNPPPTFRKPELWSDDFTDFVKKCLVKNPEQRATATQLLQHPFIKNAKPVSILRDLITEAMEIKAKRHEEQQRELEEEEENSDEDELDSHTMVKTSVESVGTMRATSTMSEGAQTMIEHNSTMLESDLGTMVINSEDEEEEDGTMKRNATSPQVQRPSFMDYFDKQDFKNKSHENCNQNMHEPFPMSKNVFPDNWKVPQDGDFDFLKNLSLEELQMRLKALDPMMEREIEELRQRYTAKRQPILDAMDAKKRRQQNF
Description: Kinase screen: MST2 assay. As for the experimental part:
as §1, §2
MST2 assay: MST2 (5-20 mU diluted in 50 mM Tris pH 7.5, 0.1 mM EGTA, 0.1% b-mercaptoethanol, 100 μM Vanadate) was assayed against MBP in a final volume of 25.5 μl containing 50 mM Tris pH 7.5, 0.05% b-mercaptoethanol, 0.33 mg/ml MBP, 10 mM magnesium acetate and 0.02 mM [33P-g-ATP] (50-1000 cpm/pmole) and incubated for 30 min at room temperature. Assays were stopped by addition of 5 μl of 0.5 M (3%) orthophosphoric acid and then harvested onto P81 Unifilter plates with a wash buffer of 50 mM orthophosphoric acid.

The target in the next assay is HIPK2 (Homo sapiens, UniProt Q9H2X6). As to the kind of experiment: Kinase screen: HIPK2 assay. As for the experimental part: as §1, §2
Sequence of HIPK2 (Q9H2X6 whole entry, species assumed): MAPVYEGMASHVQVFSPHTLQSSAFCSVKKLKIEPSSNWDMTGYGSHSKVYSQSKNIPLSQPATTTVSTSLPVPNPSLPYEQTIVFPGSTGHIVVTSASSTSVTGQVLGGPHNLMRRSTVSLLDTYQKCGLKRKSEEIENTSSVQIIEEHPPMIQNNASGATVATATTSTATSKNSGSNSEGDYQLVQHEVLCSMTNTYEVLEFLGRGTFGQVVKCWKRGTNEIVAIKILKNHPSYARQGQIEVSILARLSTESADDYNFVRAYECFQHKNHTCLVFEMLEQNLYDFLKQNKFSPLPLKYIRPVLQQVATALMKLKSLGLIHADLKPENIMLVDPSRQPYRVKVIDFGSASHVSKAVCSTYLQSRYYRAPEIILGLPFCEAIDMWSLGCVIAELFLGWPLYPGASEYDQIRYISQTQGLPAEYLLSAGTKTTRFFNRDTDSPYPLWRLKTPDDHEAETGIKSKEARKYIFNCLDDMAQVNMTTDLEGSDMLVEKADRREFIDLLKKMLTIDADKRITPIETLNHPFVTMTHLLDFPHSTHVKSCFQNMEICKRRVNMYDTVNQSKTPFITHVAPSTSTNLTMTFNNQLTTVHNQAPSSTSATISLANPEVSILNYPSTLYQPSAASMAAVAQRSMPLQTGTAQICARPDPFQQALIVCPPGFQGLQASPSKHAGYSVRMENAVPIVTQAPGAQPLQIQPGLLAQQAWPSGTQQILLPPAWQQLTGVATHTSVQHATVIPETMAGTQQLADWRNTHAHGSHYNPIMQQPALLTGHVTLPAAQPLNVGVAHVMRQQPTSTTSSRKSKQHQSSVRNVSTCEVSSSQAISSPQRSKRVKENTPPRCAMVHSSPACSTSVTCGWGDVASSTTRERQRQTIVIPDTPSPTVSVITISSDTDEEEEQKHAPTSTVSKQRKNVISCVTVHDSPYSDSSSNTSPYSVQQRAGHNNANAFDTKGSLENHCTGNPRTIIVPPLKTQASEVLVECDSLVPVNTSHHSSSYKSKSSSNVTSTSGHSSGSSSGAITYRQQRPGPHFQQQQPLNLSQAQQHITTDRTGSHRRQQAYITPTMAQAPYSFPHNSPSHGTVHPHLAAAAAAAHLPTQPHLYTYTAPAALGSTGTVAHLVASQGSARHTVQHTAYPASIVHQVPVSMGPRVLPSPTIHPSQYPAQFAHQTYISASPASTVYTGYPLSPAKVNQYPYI
HIPK2 assay: 5-20 mU of HIPK2 (diluted in 50 mM Tris (pH 7.5), 0.1 mM EGTA, 1 mg/ml BSA, 0.1%, b-Mercaptoethanol) was assayed against MBP in a final volume of 25.5 μl containing 50 mM Tris (pH 7.5), 0.1 mM EGTA, 0.1%, b-Mercaptoethanol, 0.33 mg/ml MBP, 10 mM magnesium acetate and 0.005 mM [33P-g-ATP] (500-1000 cpm/pmole) and incubated for 30 mins at room temperature. Assays were stopped by addition of 5 μl of 0.5M (3%) orthophosphoric acid. Assays were harvested onto P81 Unifilter plates using a wash buffer of 50 mM orthophosphoric acid.

The target in the next assay is BTK (Homo sapiens, UniProt Q06187). Description: Kinase screen: BTK assay. Particulars: 10 micromolar compound; for remaining activity at 10 µM: read-out: mean activity remaining (as a percentage of the original activity), BTK. As for the experimental part:
as §1, §2, §3

[1] abbreviates: 10 micromolar compound, read-out: mean activity remaining (as a percentage of the original activity), MKK1.
The mark [2] stands for this setting: 10 micromolar compound, read-out: mean activity remaining (as a percentage of the original activity), MSK1.
[3] abbreviates: 10 micromolar compound, read-out: mean activity remaining (as a percentage of the original activity), CHK 2.
Setting [4] is: 10 micromolar compound, read-out: mean activity remaining (as a percentage of the original activity), DYRK 1A.
[5] abbreviates: 10 micromolar compound, read-out: mean activity remaining (as a percentage of the original activity), MST2.
Setting [6] is: 10 micromolar compound, read-out: mean activity remaining (as a percentage of the original activity), HIPK2.

Where two headings read alike, the source gives them in different places.

Sequence of MSK1 (O75582 whole entry, species assumed): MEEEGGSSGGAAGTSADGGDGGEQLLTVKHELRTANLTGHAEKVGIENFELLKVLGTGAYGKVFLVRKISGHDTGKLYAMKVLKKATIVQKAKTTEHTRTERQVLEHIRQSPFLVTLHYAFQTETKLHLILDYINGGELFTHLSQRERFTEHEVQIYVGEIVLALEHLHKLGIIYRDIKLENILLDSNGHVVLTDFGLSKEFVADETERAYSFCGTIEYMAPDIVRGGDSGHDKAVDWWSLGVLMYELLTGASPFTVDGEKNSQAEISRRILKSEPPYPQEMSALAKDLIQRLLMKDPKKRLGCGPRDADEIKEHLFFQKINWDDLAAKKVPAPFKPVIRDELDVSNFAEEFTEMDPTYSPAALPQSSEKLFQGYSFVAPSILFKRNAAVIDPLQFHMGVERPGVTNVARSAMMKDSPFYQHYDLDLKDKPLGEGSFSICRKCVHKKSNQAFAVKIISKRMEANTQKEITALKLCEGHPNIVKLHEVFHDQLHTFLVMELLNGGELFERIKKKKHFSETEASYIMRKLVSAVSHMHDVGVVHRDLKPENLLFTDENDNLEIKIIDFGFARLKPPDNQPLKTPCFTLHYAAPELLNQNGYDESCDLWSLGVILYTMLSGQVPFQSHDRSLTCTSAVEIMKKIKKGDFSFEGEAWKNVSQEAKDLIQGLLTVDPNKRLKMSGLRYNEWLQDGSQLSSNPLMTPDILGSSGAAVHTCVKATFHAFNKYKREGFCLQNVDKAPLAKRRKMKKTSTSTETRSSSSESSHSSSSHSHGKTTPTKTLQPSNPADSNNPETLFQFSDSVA
Sequence of MKK1 (Q02750 whole entry, species assumed): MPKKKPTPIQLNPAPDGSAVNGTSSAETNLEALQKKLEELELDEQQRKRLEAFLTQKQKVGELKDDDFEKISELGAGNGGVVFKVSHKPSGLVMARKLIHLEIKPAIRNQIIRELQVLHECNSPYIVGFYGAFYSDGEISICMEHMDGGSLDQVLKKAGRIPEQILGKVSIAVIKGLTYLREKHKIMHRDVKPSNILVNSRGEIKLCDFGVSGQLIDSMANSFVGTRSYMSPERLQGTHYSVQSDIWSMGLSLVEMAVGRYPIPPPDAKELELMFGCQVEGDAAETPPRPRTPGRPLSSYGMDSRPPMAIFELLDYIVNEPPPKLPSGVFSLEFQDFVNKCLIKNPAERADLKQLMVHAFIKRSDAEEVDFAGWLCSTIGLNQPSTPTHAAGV
Sequence of BTK (Q06187 whole entry, species assumed): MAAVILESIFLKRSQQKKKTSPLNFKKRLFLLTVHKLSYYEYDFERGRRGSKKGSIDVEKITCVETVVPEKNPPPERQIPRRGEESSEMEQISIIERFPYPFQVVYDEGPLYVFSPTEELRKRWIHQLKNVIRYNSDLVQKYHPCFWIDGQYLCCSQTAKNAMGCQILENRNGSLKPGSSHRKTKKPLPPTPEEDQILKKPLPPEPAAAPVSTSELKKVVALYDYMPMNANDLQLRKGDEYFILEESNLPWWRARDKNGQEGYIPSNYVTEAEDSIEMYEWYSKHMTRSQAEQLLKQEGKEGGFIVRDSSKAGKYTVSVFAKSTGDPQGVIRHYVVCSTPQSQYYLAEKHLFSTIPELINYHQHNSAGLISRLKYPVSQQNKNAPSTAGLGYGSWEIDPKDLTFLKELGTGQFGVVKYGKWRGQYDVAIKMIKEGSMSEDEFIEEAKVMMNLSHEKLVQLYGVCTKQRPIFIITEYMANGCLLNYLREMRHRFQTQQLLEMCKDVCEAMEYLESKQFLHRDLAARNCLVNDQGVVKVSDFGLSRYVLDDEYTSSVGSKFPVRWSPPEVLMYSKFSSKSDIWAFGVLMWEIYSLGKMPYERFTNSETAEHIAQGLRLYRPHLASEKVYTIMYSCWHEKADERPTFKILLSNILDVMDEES

`CC(C)c1cnn2c(NCc3ccccc3F)cc(NCCCCCN)nc12` [ICEC-0232]: on MKK1 (10 micromolar compound), the “mean activity remaining (as a percentage of the original activity), MKK1” value was 83%. Besides, the “mean activity remaining (as a percentage of the original activity), MSK1” value at MSK1 (10 micromolar compound) worked out at 42%. Moreover, the “mean activity remaining (as a percentage of the original activity), CHK 2” value at CHK2 (10 micromolar compound) is 15%. Further, on DYRK1A (10 micromolar compound), the “mean activity remaining (as a percentage of the original activity), DYRK 1A” value was found to be 11%. Also, the “mean activity remaining (as a percentage of the original activity), MST2” value on MST2 (10 micromolar compound) is recorded as 82%. Besides, the “mean activity remaining (as a percentage of the original activity), HIPK2” value on HIPK2 (10 micromolar compound) was 49%. In addition, the “mean activity remaining (as a percentage of the original activity), BTK” value at BTK was 90%.

For the compound `CC[C@H](CO)Nc1cc(NCc2ccccc2)n2ncc(C(C)C)c2n1` [ICEC0067], the remaining activity at 10 µM on MKK1 (setting [1]) was determined as 44%; on MSK1 (setting [2]), 86%; on CHK2 (setting [3]), 70%; on DYRK1A (setting [4]), 27%; at MST2 (setting [5]), 89%; at HIPK2 (setting [6]) it was 70%. Also, the remaining activity at 10 µM at BTK turned out to be 84%.

Consider `CC(C)c1cnn2c(NCc3ccccc3)cc(NCCCCCCCN)nc12` [BS-181], for which the remaining activity at 10 µM worked out at 96% on MKK1 (MKK1, 10 μM, read-out: Mean Remaining Enzyme Activity (%)); 65% at MSK1 (MSK1, 10 μM, read-out: Mean Remaining Enzyme Activity (%)); 36% at CHK2 (CHK2, 10 μM, read-out: Mean Remaining Enzyme Activity (%)); 17% on DYRK1A (DYRK1A, 10 μM, read-out: Mean Remaining Enzyme Activity (%)); 112% on MST2 (MST2, 10 μM, read-out: Mean Remaining Enzyme Activity (%)); 88% at HIPK2 (HIPK2, 10 μM, read-out: Mean Remaining Enzyme Activity (%)). The IC50 on DYRK1A (kinase screen) came out at 2300 nM.

As for `C=C[C@H](CO)Nc1cc(NCc2ccccc2)n2ncc(C(C)C)c2n1` [ICEC0065], the remaining activity at 10 µM turned out to be 107% on MKK1 (setting [1]); 88% on MSK1 (setting [2]); 81% on CHK2 (setting [3]); 30% on DYRK1A (setting [4]); 87% at MST2 (setting [5]); 70% at HIPK2 (setting [6]). Further, the remaining activity at 10 µM on BTK came out at 94%.

On to `CC(C)c1cnn2c(NCc3ccccc3)cc(N[C@@H](CO)[C@H](O)CO)nc12` [ICEC0318, (3S)-3-(7-(Benzylamino)-3-isopropylpyrazolo[1,5-a]pyrimidin-5-ylamino)butane-1,2,4-triol], for which the remaining activity at 10 µM at MKK1 (setting [1]) came out at 65%; on MSK1 (setting [2]), 96%; at CHK2 (setting [3]), 61%; at DYRK1A (setting [4]), 15%; on MST2 (setting [5]), 86%; on HIPK2 (setting [6]) it was 73%. Further, the remaining activity at 10 µM on BTK stood at 91%.

The remaining activity is the signal under treatment as a percentage of the control signal. In general, IC50 refers to the midpoint of a concentration-inhibition curve.

These data come from US8067424B2, “Selective inhibitors for cyclin-dependent kinases” (Emory University, priority 2007, dated 2011).
